Source: patent publication US20210380586A1, “2-INDOLYL IMIDAZO[4,5-D]PHENANTHROLINE POLYMORPHS AND COMPOSITIONS REGARDING THE SAME” (Aptose Biosciences Inc., priority 2020, published 2021)

How the values were obtained:
[1] = Single dose intravenous infusion in rats, toxicokinetic parameters in serum; type: in vivo, Sprague-Dawley rats
Protocol: Compound I-hydrate Form 2 was formulated in 23% Solutol HS-15 and 70% PG and diluted with Lactated Ringer Solution to a concentration of 0.061 mg/mL. […] Dose volume was 10 mL/Kg and the infusion rate was 120 mL/kg/hr.
Following dosing, a series of 12 blood samples (approximately 0.2 mL each) were collected from the rats in the first 72 hours. Following collection, blood samples were allowed to stand at room temperature for approximately 30 to 60 minutes to clot and then centrifused (1200×g for 10 minutes at approximately 4° C.) and the resulting serum was recovered and stored frozen until analysis. Mean toxicokinetic parameters were calculated (Table 7).

[2] = Polymorph transition study, slurry in water-methanol, XRPD; type: physicochemical; settings: in the presence of water
Protocol: The Slurry was maintained at 20° C. or at 50° C. for one week then the resulting crystals were analyzed by XRPD to determine its polymorphic form.

[3] = Effect of drying on polymorphic form, XRPD; type: physicochemical
Protocol: Crystalline Compound I-tetrahydrate Form 2 was dried under varying temperature, pressure, and time as indicted in Table 2. After the drying, the resulting crystals were analyzed by XRPD to determine its polymorphic form.

[4] = Variable relative humidity (VRH)-XRPD analysis; type: physicochemical
Protocol: To investigate the behavior of Crystalline Form 2 at various humidities and evaluate conditions that favor generation of Form 2 (tetrahydrate) versus Form 3 (dihydrate), Form 2 was characterized by VRH-XRPD. The analysis was conducted by beginning at ambient RH (˜50%) and lowering to 0% RH for 4 hours. Actual RH during this time ranged from 0.7-0.3%.

[5] = Exposure of solids to fixed relative humidity for 11 days, XRPD; type: physicochemical; settings: for form after exposure to humidity: 11 days
Source text: To determine relative humidity boundaries for conversion between Form 2 and Form 3, solids of Form 2 were exposed to P2O5 conditions (˜0% RH), 11%, and 23% RH. The solids were held at the specified humidities for 11 days to see if the longer duration would result in the presence of Form 3.

[6] = IV formulation end user compatibility study, microscopic particulate examination; type: physicochemical
Protocol: For the high concentration, […] of Compound I-tetrahydrate (4.0 mg/mL) was injected into a BBraun partial additive bag (PAB) for IV administration, attached to a Y-infusion set line. The other end of the Y infusion set line was connected to Lactated Ringer's Solution. Infusion is performed via the Y infusion set, such that the drug product is mixed with Lactated Ringer's Solution directly prior to administration. A total volume of 100 mL drug product at a rate of 50 mL/hr and 200 mL Lactated Ringer's Solution at a rate of 100 mL/hr were administered in a 2:1 ratio over a two hour period, to deliver 300 mL of eluent at a rate of 150 mL/hr.
The evaluation of particulate matter from collected IV samples was therefore performed by microscopic visual examination utilizing approximately 25 μL of IV co-infusion eluate, collected directly from the terminal end of the IV line, deposited on a microscope slide. […] The specific microscope settings used are shown below. A Positive Control sample containing a USP Particle Count Reference Standard consisting of spherical particles of known sizes between 10 μm and 15 μm (USP reference standard, Cat. No.: 1500502, lot #L0L142) was visualized under the microscope using a 10×10 lens.

[7] = USP <788> Method 1 HIAC particle count after mixing with Lactated Ringers; type: physicochemical; settings: 4 mg/mL mixed with Lactated Ringers 2:1, held in glass or Nalgene container
Protocol: In USP <788> monograph, two methods were provided to determine particles or particulate matter in an injectable drug, i.e. using an analytical instrument to count particle or Method I (e.g. electronic light obscuration or HIAC method) or counting the particles using an optical microscope (Method 2). Prior to conducting the End-User Compatibility Study, a study was performed to determine the feasibility of sample collection and assessment by USP <788> Method I (HIAC analysis). For this study, Compound I-tetrahydrate (4 mg/mL) was mixed with Lactated Ringers IV Solution in a 2:1 ratio of Lactated Ringers solution to Compound I-tetrahydrate and held in a glass or Nalgene plastic container. Samples were held for 1, 5, 10, 15, 20, 25 and 30 minutes and analyzed by USP <788> Method 1 using a HIAC electronic light obscuration particle counter. […] This short time duration precluded the use of USP <788> Method 1 (HIAC) due to the large sample volumes (˜25 mL) and length of time required to collect this volume of sample, drop wise, from the infusion set.

[8] = 4.0 mg/mL, Y-infusion with Lactated Ringer's Solution 2:1, 120 min simulated infusion run

Compound `Cc1[nH]c2ccc(F)cc2c1-c1nc2c3cccnc3c3ncccc3c2[nH]1` [Compound I-hydrate Form 2] has an AUC(0-inf) ([1]; Sprague-Dawley, rat, male rats serum, 0.5 mg/kg, single IV infusion over 5 min, mean) of 0.13 µg·h/mL, an AUC(0-t) ([1]; Sprague-Dawley, rat, male rats serum, 0.5 mg/kg, single IV infusion over 5 min, mean, read-out: AUC0-Tlast) of 0.1 µg·h/mL and a clearance ([1]; Sprague-Dawley, rat, male rats serum, 0.5 mg/kg, single IV infusion over 5 min, mean, read-out: Cl (total body clearance per kg body weight) (converted)) of 3.84 L/h/kg. It also gave a Cmax ([1]; Sprague-Dawley, rat, male rats serum, 0.5 mg/kg, single IV infusion over 5 min, mean, read-out: Cmax (maximum plasma concentration)) of 1.75 µg/mL, a half-life ([1]; Sprague-Dawley, rat, male rats serum, 0.5 mg/kg, single IV infusion over 5 min, mean, read-out: T1/2 (Terminal elimination half-life) (converted)) of 1.45 h and a Tmax ([1]; Sprague-Dawley, rat, male rats serum, 0.5 mg/kg, single IV infusion over 5 min, mean, read-out: Tmax (time to maximum plasma concentration)) of 0 h. For the same compound, the Vd ([1]; Sprague-Dawley, rat, male rats serum, 0.5 mg/kg, single IV infusion over 5 min, mean, read-out: Vz (volume of distribution per kg body weight)) was 8.04 L/kg, the “AUC % Extrap” value ([1]; male rats serum, 0.5 mg/kg, single IV infusion over 5 min, mean) was 23.1% and the “AUCs, fold higher than with Compound I-HCl salt” value ([1]; rats, 0.5 mg/kg IV) was “approximately 3 fold”. For the same compound, the “Cmax, fold higher than with Compound I-HCl salt” value ([1]; rats, 0.5 mg/kg IV) was “approximately 3 fold”, the “volume of distribution, fold higher than Compound I-HCl salt” value ([1]; rats, 0.5 mg/kg IV) was 1.6 fold and the “stability relative to Crystalline Form 1” value [2] was “more stable”. For the same compound, the “stability under various drying conditions” value ([3]; 15-35 ° C., 600-0 mbar, up to 3 days) was “stable”, the “Polymorphic form by XRPD after drying” value ([3]; 15 ° C., 0 mbar, drying time 1 h) was “Form 2” and the “Polymorphic form by XRPD after drying” value ([3]; 15 ° C., 0 mbar, drying time 4 h) was “Form 1”. The “Polymorphic form by XRPD after drying” value ([3]; 15 ° C., 0 mbar, drying time 24 h) was “Form 1”, the “Polymorphic form by XRPD after drying” value ([3]; 15 ° C., 0 mbar, drying time 3 days) was “Form 1” and the “Polymorphic form by XRPD after drying” value ([3]; 15 ° C., 400 mbar, drying time 1 h) was “Form 2”. For the same compound, the “Polymorphic form by XRPD after drying” value ([3]; 15 ° C., 400 mbar, drying time 4 h) was “Form 2”, the “Polymorphic form by XRPD after drying” value ([3]; 15 ° C., 400 mbar, drying time 24 h) was “Form 2” and the “Polymorphic form by XRPD after drying” value ([3]; 15 ° C., 400 mbar, drying time 3 days) was “Form 2”. For the same compound, the “Polymorphic form by XRPD after drying” value ([3]; 15 ° C., 600 mbar, drying time 1 h) was “Form 2”, the “Polymorphic form by XRPD after drying” value ([3]; 15 ° C., 600 mbar, drying time 4 h) was “Form 2” and the “Polymorphic form by XRPD after drying” value ([3]; 15 ° C., 600 mbar, drying time 24 h) was “Form 2”. For the same compound, the “Polymorphic form by XRPD after drying” value ([3]; 15 ° C., 600 mbar, drying time 3 days) was “Form 2”, the “Polymorphic form by XRPD after drying” value ([3]; 25 ° C., 0 mbar, drying time 1 h) was “Form 2” and the “Polymorphic form by XRPD after drying” value ([3]; 25 ° C., 0 mbar, drying time 4 h) was “Form 1”. For the same compound, the “Polymorphic form by XRPD after drying” value ([3]; 25 ° C., 0 mbar, drying time 24 h) was “Form 1”, the “Polymorphic form by XRPD after drying” value ([3]; 25 ° C., 400 mbar, drying time 1 h) was “Form 2” and the “Polymorphic form by XRPD after drying” value ([3]; 25 ° C., 400 mbar, drying time 4 h) was “Form 2”. For the same compound, the “Polymorphic form by XRPD after drying” value ([3]; 25 ° C., 400 mbar, drying time 24 h) was “Form 2”, the “Polymorphic form by XRPD after drying” value ([3]; 25 ° C., 400 mbar, drying time 3 days) was “Form 2” and the “Polymorphic form by XRPD after drying” value ([3]; 25 ° C., 600 mbar, drying time 1 h) was “Form 2”. The “Polymorphic form by XRPD after drying” value ([3]; 25 ° C., 600 mbar, drying time 4 h) was “Form 2”, the “Polymorphic form by XRPD after drying” value ([3]; 25 ° C., 600 mbar, drying time 24 h) was “Form 2” and the “Polymorphic form by XRPD after drying” value ([3]; 25 ° C., 600 mbar, drying time 3 days) was “Form 2”. The “Polymorphic form by XRPD after drying” value ([3]; 35 ° C., 0 mbar, drying time 1 h) was “Form 1 and Form 2”, the “Polymorphic form by XRPD after drying” value ([3]; 35 ° C., 0 mbar, drying time 4 h) was “Form 1” and the “Polymorphic form by XRPD after drying” value ([3]; 35 ° C., 0 mbar, drying time 24 h) was “Form 1”. For the same compound, the “Polymorphic form by XRPD after drying” value ([3]; 35 ° C., 400 mbar, drying time 1 h) was “Form 2”, the “Polymorphic form by XRPD after drying” value ([3]; 35 ° C., 400 mbar, drying time 4 h) was “Form 2” and the “Polymorphic form by XRPD after drying” value ([3]; 35 ° C., 400 mbar, drying time 24 h) was “Form 2”. The “Polymorphic form by XRPD after drying” value ([3]; 35 ° C., 600 mbar, drying time 1 h) was “Form 2”, the “Polymorphic form by XRPD after drying” value ([3]; 35 ° C., 600 mbar, drying time 4 h) was “Form 2” and the “Polymorphic form by XRPD after drying” value ([3]; 35 ° C., 600 mbar, drying time 24 h) was “Form 2”. The “form change under full vacuum” value ([3]; full vacuum (0 mbar) for four hours, all temperature tested) was “complete conversion to Form 1”, the “VRH-XRPD Results” value ([4]; Held at ~0.3-0.7% RH, 4 hours) was “Form 2 + Form 3; amount of Form 3” and the “VRH-XRPD Results” value ([4]; Initial scan at ambient RH (46.3%)) was “Consistent with Form 2”. The “VRH-XRPD Results” value ([4]; finally held at ambient RH (~40% to ~37%)) was “Form 2 + trace amount of Form 3”, the “VRH-XRPD Results” value ([4]; then held at ~50% RH, 1 hour (cycling back)) was “Form 2, possibly contains trace” and the “VRH-XRPD Results” value ([4]; then held at ~50% RH, 1 hour (increasing RH)) was “Form 2 + Form 3”. For the same compound, the “VRH-XRPD Results” value ([4]; then held at ~80% RH, 1 hour (cycling back)) was “Form 2, possibly contains trace”, the “VRH-XRPD Results” value ([4]; then held at ~82-79% RH, 1 hour) was “Form 2 + trace amount of Form 3” and the “VRH-XRPD Results” value ([4]; then held at ~85-87% RH, 2 hours) was “Form 2, possibly contains trace”. For the same compound, the “form after exposure to humidity” value ([5]; 11% RH) was “no form change”, the “form after exposure to humidity” value ([5]; 23% RH) was “no form change” and the “form after exposure to humidity” value ([5]; P2O5 conditions (~0% RH)) was “converts to Form 3”. For the same compound, the “relative humidity at and above which physically stable” value ([5]; exposed for over a week) was no less than 11 % RH, the “filter clogging or stoppage of the infusion pump” value [6, 8] was “No filter clogging” and the “particles by microscope examination in eluent samples” value [6, 8] was “no particles were detected”. For the same compound, the “time material may be infused without filter clogging” value ([6]; "Y-Line" infusion set) was “up to 2 hours” and the “time at which particulate formed at levels exceeding USP acceptance criteria” value [7] was “approximately 10 minutes”.
